Source: BindingDB's records for doi:10.7270/Q2CN728N (Nmmlsc, 2008)

molecular target: T1, Bcl-2-related protein A1 (Homo sapiens, UniProt Q16548); assay: Bfl-1/Bim complex disruptors – biochemical, multiplexed, bead-based flow cytometry, dose response (AID 1320); conditions: inactive by the depositor's call; pH 7.4; 4 °C
T1 sequence (Q16548 whole entry): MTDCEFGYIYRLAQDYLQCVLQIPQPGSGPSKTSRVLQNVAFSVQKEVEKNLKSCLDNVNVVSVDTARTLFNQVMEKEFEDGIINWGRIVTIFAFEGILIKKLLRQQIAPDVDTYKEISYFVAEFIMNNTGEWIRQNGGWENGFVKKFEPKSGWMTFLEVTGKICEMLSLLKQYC

Row | EC50 [µM] | Compound
1 | 1.88 | Cc1ccc(-c2cc(-c3ccc4c(c3)OCO4)c(C#N)c(N)n2)o1 [SMR000001529]
2 | 22.7 | CSc1nnc2c3cc(C)ccc3n(Cc3ccccc3)c2n1 [SMR000046397]
3 | 3.02 | NC(=O)c1c(N)sc2c1CCCCC2 [SMR000066289]
4 | 57.3 | Nc1c(C(=O)NCc2ccco2)sc2nc3c(cc12)C(=O)CCC3 [SMR000072940]
5 | 0.85 | CN(C)c1ccc(Nc2nc(-c3cccnc3)cs2)cc1 [SMR000104797]
6 | 4.09 | CNC(=O)c1c(N)sc2c1CCCCC2 [SMR000111700]
7 | 15 | CNc1ccc(Br)cc(C(=O)/C=C/c2cc(OC)ccc2OC)c1=O [SMR000115626]
8 | 3.9 | O=C(Nc1ccc2nc(-c3ccco3)c(-c3ccco3)nc2c1)NC1CC1 [SMR000118524]
9 | 3.18 | O=C(NCCO)c1ccc2nc(-c3ccco3)c(-c3ccco3)nc2c1 [SMR000121771]
10 | 67.5 | N#Cc1ccc(/N=c2/ssnc2Cl)cc1 [SMR000130044]

The next lines start with the compound.

Row | Compound | EC50 [µM]
11 | O=C(Nc1nnc(COc2ccc(Cl)cc2)s1)c1ccco1 [N-[5-[(4-chloranylphenoxy)methyl]-1,3,4-thiadiazol-2-yl]furan-2-carboxamide] | 8.07
12 | Cc1cccc(OCC(=O)NCC(=O)NN=Cc2cc(Br)ccc2OCc2ccccc2)c1 [N-[(5-bromanyl-2-phenylmethoxy-phenyl)methylideneamino]-2-[2-(3-methylphenoxy)ethanoylamino]ethanamide] | 4.63
13 | Nc1ccccc1/N=c1/ssnc1Cl [N-[(5Z)-4-chloro-5H-1,2,3-dithiazol-5-ylidene]benzene-1,2-diamine] | 4.72
14 | CC(C)C(=O)NC(c1ccccc1)c1cc([N+](=O)[O-])c2cccnc2c1O (configuration not stated) [N-[(8-hydroxy-5-nitro-7-quinolinyl)-phenylmethyl]-2-methylpropanamide] | 26.5
15 | Cc1onc(-c2ccccc2)c1C(=O)Nc1nnc(COc2ccc(Cl)cc2)s1 [N-{5-[(4-chlorophenoxy)methyl]-1,3,4-thiadiazol-2-yl}-5-methyl-3-phenyl-4-isoxazolecarboxamide] | 4.36

same assay, conditions: pH 7.4; 4 °C

Row | EC50 [µM] | Compound
16 | 3.63 | COc1cc(/N=c2/ssnc2Cl)cc(OC)c1OC [SMR000025034]
17 | 1.34 | Cc1cc2nn(-c3cccc4ccccc34)nc2cc1N [SMR000076237]
18 | 6.53 | COc1cc(/N=c2/ssnc2Cl)c(OC)cc1Cl [SMR000130043]
19 | 0.08 | CCC(=O)OCCNc1cc(Sc2nc3ccccc3s2)c2nonc2c1[N+](=O)[O-] [SMR000131460]
20 | 5.04 | CCOC(=O)C1=C(Cc2ccc(OC)cc2)C(=O)c2ccccc2C1=O [SMR000136995]

Further lines, the compound ahead of its results:

Row | Compound | EC50 [µM]
21 | COc1ccccc1NC1=C(NC(C)=O)C(=O)c2ccccc2C1=O [N-[3-(2-methoxyanilino)-1,4-dioxonaphthalen-2-yl]acetamide] | 1.41
22 | O=C(NC1=C(NC2CCS(=O)(=O)C2)C(=O)c2ccccc2C1=O)c1ccccc1 (configuration not stated) [N-[3-[(1,1-dioxo-3-thiolanyl)amino]-1,4-dioxo-2-naphthalenyl]benzamide] | 6.59
23 | CC(=O)NC1=C(NC2CCS(=O)(=O)C2)C(=O)c2ccccc2C1=O (configuration not stated) [N-[3-[(1,1-dioxothiolan-3-yl)amino]-1,4-dioxonaphthalen-2-yl]acetamide] | 1.55
24 | Cc1cccc(C(=O)/N=c2\c(C#N)cc3c(=O)n4cccc(C)c4nc3n2Cc2ccco2)c1 [N-[3-cyano-1-(furan-2-ylmethyl)-10-methyl-5-oxodipyrido[3,4-c:1',2'-f]pyrimidin-2-ylidene]-3-methylbenzamide] | 9.69
25 | COc1cc(CNc2ccc(N3CCCC3)cc2)cc(Cl)c1OC [N-[(3-chloranyl-4,5-dimethoxy-phenyl)methyl]-4-pyrrolidin-1-yl-aniline] | 5.3
26 | CCC(=O)N(CC)C1C(=O)C(=O)c2ccccc2C1=O (configuration not stated) [N-ethyl-N-(1-hydroxy-3,4-dioxo-2-naphthalenyl)propanamide] | 0.08
27 | CC(C)(C)NC(=O)COc1ccc(CNc2ccc3[nH]c(O)nc3c2)cc1 [N-tert-butyl-2-[4-[[(2-oxidanylidene-1,3-dihydrobenzimidazol-5-yl)amino]methyl]phenoxy]ethanamide] | 2.87
